According to the NIST ThermoML archive (doi:10.1016/j.fluid.2013.11.023):
Numbers after ± are expanded uncertainties.

Conditions: Crystal; DTA

Normal melting temperature: 118.60 ± 4 °C
Structure (SMILES): Brc1sc(Br)c(Br)c1Br [perbromothiophene]
